Experimental findings from ChEMBL document CHEMBL4609973, “Hepatitis C - New drugs and treatment prospects” (Eur J Med Chem, 2019) are described below.

Data set [1] in a line: Half life in human. The format is ADME.
Data set [2] is described as follows: Oral bioavailability in human. The format is ADME, organism-based. The following applies: in vivo.
Data set [3] is described as follows: Drug excretion in human feces assessed as daclatasvir level. The following applies: faeces, read-out: Drug excretion. The format is ADME, tissue-based.
Data set [4] is described as follows: Absolute bioavailability in human. The format is ADME, organism-based. Particulars: in vivo.
The nature of data set [5]: Drug excretion in human feces assessed as dasabuvir level. In kind it is ADME, tissue-based. Particulars: faeces, read-out: Drug excretion.
A short description of data set [6]: Drug excretion in human feces assessed as ombitasvir level. In kind it is ADME, tissue-based. The following applies: faeces, read-out: Drug excretion.
Data set [7] in a line: Oral bioavailability in human under fed condition. The format is ADME, organism-based. The following applies: in vivo.
A short description of data set [8]: Half life in HIV infected human. The format is ADME.

The term half-life denotes how long it takes for the measured level to halve. Higher therefore signals slow loss. Consider `C[C@@]1(F)[C@H](O)[C@@H](CO)O[C@H]1n1ccc(=O)[nH]c1=O`, for which the half-life in data set [1] was 27 h.

As a reminder, the bioavailability is the share of a dose that reaches the circulation, judged against a reference dose that is usually intravenous. A higher bioavailability goes with much systemic uptake. In data set [1], `COC(=O)N[C@H](C(=O)N1CCC[C@H]1c1nc(-c2ccc(-c3ccc(-c4c[nH]c([C@@H]5CCCN5C(=O)[C@@H](NC(=O)OC)C(C)C)n4)cc3)cc2)c[nH]1)C(C)C` [DACLATASVIR] had a half-life of 12 to 15 h. This compound had a bioavailability in data set [2] of 67%. Besides, the dose excreted in data set [3] is 53%.

`COc1c(-c2ccc3cc(NS(C)(=O)=O)ccc3c2)cc(-n2ccc(=O)[nH]c2=O)cc1C(C)(C)C` [DASABUVIR]: the half-life in data set [1] lay within 5.5 to 6 h. Also, in data set [4], the bioavailability stood at 70%. Besides, in data set [5], the dose excreted is 26.2%.

For the compound `COC(=O)N[C@H](C(=O)N1CCC[C@H]1c1nc(-c2ccc3c(c2)O[C@@H](c2ccccc2)n2c-3cc3cc(-c4c[nH]c([C@@H]5CCCN5C(=O)[C@@H](NC(=O)OC)C(C)C)n4)ccc32)c[nH]1)C(C)C` [ELBASVIR], the half-life in data set [1] was 24 h.

Regarding `CC(C)(C)[C@@H]1NC(=O)O[C@@H]2CCC[C@H]2OC/C=C/C(F)(F)c2nc3ccccc3nc2O[C@@H]2C[C@@H](C(=O)N[C@]3(C(=O)NS(=O)(=O)C4(C)CC4)C[C@H]3C(F)F)N(C2)C1=O` [GLECAPREVIR], the half-life in data set [1] is 6 h.

In data set [1], `C=C[C@@H]1C[C@]1(NC(=O)[C@@H]1C[C@@H]2CN1C(=O)[C@H](C(C)(C)C)NC(=O)O[C@@H]1C[C@H]1CCCCCc1nc3ccc(OC)cc3nc1O2)C(=O)NS(=O)(=O)C1CC1` [GRAZOPREVIR ANHYDROUS] gave a half-life of 31 h.

For the compound `COC(=O)N[C@H](C(=O)N1CC2(CC2)C[C@H]1c1ncc(-c2ccc3c(c2)C(F)(F)c2cc(-c4ccc5nc([C@@H]6[C@H]7CC[C@H](C7)N6C(=O)[C@@H](NC(=O)OC)C(C)C)[nH]c5c4)ccc2-3)[nH]1)C(C)C` [LEDIPASVIR], in data set [1], the half-life is 47 h. The compound further gave a bioavailability in data set [2] of 76%.

As for `COC(=O)N[C@H](C(=O)N1CCC[C@H]1C(=O)Nc1ccc([C@@H]2CC[C@@H](c3ccc(NC(=O)[C@@H]4CCCN4C(=O)[C@@H](NC(=O)OC)C(C)C)cc3)N2c2ccc(C(C)(C)C)cc2)cc1)C(C)C` [OMBITASVIR], the half-life in data set [1] fell in the range of 21 to 25 h. In addition, in data set [4], the bioavailability is 48%. Besides, in data set [6], the dose excreted came to 90.2%.

As to `Cc1cnc(C(=O)N[C@H]2CCCCC/C=C\[C@@H]3C[C@@]3(C(=O)NS(=O)(=O)C3CC3)NC(=O)[C@@H]3C[C@@H](Oc4nc5ccccc5c5ccccc45)CN3C2=O)cn1` [PARITAPREVIR], the half-life in data set [1] was 5.5 h. The compound further returned a bioavailability in data set [4] of 53%.

As for `COC(=O)N[C@H](C(=O)N1CCC[C@H]1c1nc2cc([C@H]3CC[C@H](c4cc5nc([C@@H]6CCCN6C(=O)[C@@H](NC(=O)OC)[C@@H](C)OC)[nH]c5cc4F)N3c3cc(F)c(N4CCC(c5ccc(F)cc5)CC4)c(F)c3)c(F)cc2[nH]1)[C@@H](C)OC` [PIBRENTASVIR], the half-life in data set [1] was in the range of 23 to 29 h.

As for `COc1ccc2c(O[C@@H]3C[C@H]4C(=O)N[C@]5(C(=O)NS(=O)(=O)C6CC6)C[C@H]5/C=C\CCCCN(C)C(=O)[C@@H]4C3)cc(-c3nc(C(C)C)cs3)nc2c1C` [SIMEPREVIR], the results for the half-life in data set [1] and in data set [8] were 10 to 13 h and 41 h, respectively. Also, the bioavailability in data set [7] was determined as 62%.

In the case of `CC(C)OC(=O)[C@H](C)N[P@](=O)(OC[C@H]1O[C@@H](n2ccc(=O)[nH]c2=O)[C@](C)(F)[C@@H]1O)Oc1ccccc1` [SOFOSBUVIR], the half-life in data set [1] was 0.4 h. Besides, in data set [2], the bioavailability came to 92%.

`COC[C@H]1C[C@@H](c2ncc(-c3ccc4c(c3)COc3cc5c(ccc6nc([C@@H]7CC[C@H](C)N7C(=O)[C@@H](NC(=O)OC)C(C)C)[nH]c65)cc3-4)[nH]2)N(C(=O)[C@H](NC(=O)OC)c2ccccc2)C1` [VELPATASVIR]: in data set [1], the half-life was 15 h.
